# Assay results taken from US20220281886A1, “NATRIURETIC PEPTIDE RECEPTOR A AGONISTS USEFUL FOR THE TREATMENT OF CARDIOMETABOLIC DISEASES, KIDNEY DISEASE AND DIABETES” (Merck Sharp & Dohme Corp., priority 2019, published 2022).
# Molecular target: T1, hNPRA (Homo sapiens, UniProt P16066)
# T1 construct: expressed in transfected cells
# T1 sequence (P16066 33-1061): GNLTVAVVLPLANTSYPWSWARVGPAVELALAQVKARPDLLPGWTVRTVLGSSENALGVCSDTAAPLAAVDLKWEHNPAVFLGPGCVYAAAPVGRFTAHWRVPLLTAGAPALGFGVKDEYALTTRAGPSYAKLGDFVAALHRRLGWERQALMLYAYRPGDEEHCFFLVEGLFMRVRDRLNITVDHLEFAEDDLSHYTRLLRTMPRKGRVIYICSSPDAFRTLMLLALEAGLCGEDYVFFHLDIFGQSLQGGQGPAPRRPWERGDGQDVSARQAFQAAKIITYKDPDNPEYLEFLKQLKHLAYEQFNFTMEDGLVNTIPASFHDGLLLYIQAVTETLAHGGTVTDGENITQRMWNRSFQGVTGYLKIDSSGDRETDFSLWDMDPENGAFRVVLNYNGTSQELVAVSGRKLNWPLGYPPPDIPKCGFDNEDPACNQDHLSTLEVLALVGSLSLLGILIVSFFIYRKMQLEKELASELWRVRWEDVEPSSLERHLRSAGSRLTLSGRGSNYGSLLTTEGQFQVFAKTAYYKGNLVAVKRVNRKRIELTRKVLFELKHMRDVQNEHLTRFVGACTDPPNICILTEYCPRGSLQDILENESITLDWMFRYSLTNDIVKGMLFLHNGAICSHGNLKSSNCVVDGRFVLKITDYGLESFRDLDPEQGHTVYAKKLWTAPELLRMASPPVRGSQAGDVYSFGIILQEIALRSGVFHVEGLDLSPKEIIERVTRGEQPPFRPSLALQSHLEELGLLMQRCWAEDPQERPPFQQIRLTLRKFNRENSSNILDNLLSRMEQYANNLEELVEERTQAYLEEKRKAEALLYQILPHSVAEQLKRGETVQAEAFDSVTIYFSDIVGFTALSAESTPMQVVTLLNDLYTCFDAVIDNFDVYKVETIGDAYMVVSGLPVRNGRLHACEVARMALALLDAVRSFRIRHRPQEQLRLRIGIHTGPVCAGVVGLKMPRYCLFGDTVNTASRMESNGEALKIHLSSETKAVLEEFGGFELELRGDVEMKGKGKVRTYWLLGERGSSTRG
# Assay: NPRA Functional Cell Assay (cGMP HTRF)
# Assay type: cell-based
# Details: Human NPRA HEK JumpIn stable cells; cGMP by HTRF after 1 hour at 37° C.; 10-point dose response
# Outline: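 HEK JumpIn cells stably expressing human, rat or dog NPRA incubated 1 hour at 37° C with compound (10-point titration) in Opti-MEM buffer with 100 uM IBMX and 100 uM RO20. cGMP measured by HTRF against an on-plate calibration curve; EC50 from 4-parameter fit, positive control 10 nM rat-ANP (rat) or 50 nM h-ANP (human, dog).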
row,Compound,EC50
1,"CC(C)C1CCN(CC[C@@H](NC(=O)c2cc(F)c3nc4c(cc3c2)C[C@](F)(C(C)C)CC4)c2ccc(-c3ccnnc3)nc2)CC1 (racemic) [Example 56, rac-(7S)-4,7-difluoro-7-isopropyl-N-[rac-(1R)-3-(4-isopropyl-1-piperidyl)-1-(6-pyridazin-4-yl-3-pyridyl)propyl]-6,8-dihydro-5H-acridine-2-carboxamide]",258 nM
2,"CC(C)[C@]1(F)CCc2nc3c(F)cc(C(=O)N[C@H](CCN4CCC(O)CC4)c4ccc(-c5ccnnc5)nc4)cc3cc2C1 [Example 10, (7S)-4,7-difluoro-N-[(1R)-3-(4-hydroxypiperidin-1-yl)-1-(6-pyridazin-4-ylpyridin-3-yl)propyl]-7-(1-methylethyl)-5,6,7,8-tetrahydroacridine-2-carboxamide]",112 nM
3,"C[Si](C)(C)[C@H]1CCc2nc3ccc(C(=O)N[C@H](CCN4CCC(O)CC4)c4ccc(N5CCOC5=O)cc4)cc3cc2C1 [Example 5, (7S)-N-{(1R)-3-(4-hydroxypiperidin-1-yl)-1-[4-(2-oxo-1,3-oxazolidin-3-yl)phenyl]propyl}-7-(trimethylsilyl)-5,6,7,8-tetrahydroacridine-2-carboxamide]",1980 nM
4,"CC(C)[C@]1(F)CCc2nc3c(F)cc(C(=O)N[C@H](CCN4CCC5(CCCO5)CC4)c4ccc(-c5ccnnc5)nc4)cc3cc2C1 [Example 16, (7S)-4,7-difluoro-7-(1-methylethyl)-N-[(1R)-3-(1-oxa-8-azaspiro[4.5]dec-8-yl)-1-(6-pyridazin-4-ylpyridin-3-yl)propyl]-5,6,7,8-tetrahydroacridine-2-carboxamide]",343 nM
5,"CC(C)[C@]1(F)CCc2nc3c(F)cc(C(=O)N[C@H](CCN4CCCOCC4)c4ccc(-c5ccnnc5)nc4)cc3cc2C1 (racemic) [Example 57, rac-(7S)-4,7-difluoro-7-isopropyl-N-[rac-(1R)-3-(1,4-oxazepan-4-yl)-1-(6-pyridazin-4-yl-3-pyridyl)propyl]-6,8-dihydro-5H-acridine-2-carboxamide]",142 nM
6,"CC(C)[C@]1(F)CCc2nc3c(F)cc(C(=O)N[C@H](CCN4CCC(C(O)C5(CO)CC5)CC4)c4ccc(-c5ccnnc5)nc4)cc3cc2C1 (mixture of isomers) [Example 54, rac-(7S)-4,7-difluoro-7-isopropyl-N-[rac-(1R)-3-[4-[hydroxy-[1-(hydroxymethyl)cyclopropyl]methyl]-1-piperidyl]-1-(6-pyridazin-4-yl-3-pyridyl)propyl]-6,8-dihydro-5H-acridine-2-carboxamide]",91.1 nM
7,CC(C)[C@]1(F)CCc2nc3c(F)cc(C(=O)N[C@H](CCN4CCC(O)CC4)c4ccc(N5CC(=O)NC5=O)nc4)cc3cc2C1 [Example 28],321 nM
8,"CC(C)[C@]1(F)CCc2nc3c(F)cc(C(=O)N[C@H](CCN4CCCCC4CCN(C)C)c4ccc(-c5ccnnc5)nc4)cc3cc2C1 (mixture of isomers) [Example 43, rac-(7S)-4,7-difluoro-7-isopropyl-N-[rac-(1R)-3-[2-[2-(dimethylamino)ethyl]piperidin-1-ium-1-yl]-1-(6-pyridazin-4-yl-3-pyridyl)propyl]-6,8-dihydro-5H-acridine-2-carboxamide;2,2,2-trifluoroacetate]",216 nM
9,"CC1C(=O)NC(=O)N1c1ccc([C@@H](CCN2CCC(O)CC2)NC(=O)c2cc(F)c3nc4c(cc3c2)C[C@](F)(C(C)C)CC4)cn1 (stereo partly drawn) [Example 29, (7S)-4,7-difluoro-N-((1R)-3-(4-hydroxypiperidin-1-yl)-1-(6-(5-methyl-2,4-dioxoimidazolidin-1-yl)pyridin-3-yl)propyl)-7-isopropyl-5,6,7,8-tetrahydroacridine-2-carboxamide]",275 nM
10,"COC1CCN(CC[C@@H](NC(=O)c2cc(F)c3nc4c(cc3c2)C[C@](F)(C(C)C)CC4)c2ccc(-c3ccnnc3)nc2)CC1 [Example 18, (7S)-4,7-difluoro-N-[(1R)-3-(4-methoxypiperidin-1-yl)-1-(6-pyridazin-4-ylpyridin-3-yl)propyl]-7-(1-methylethyl)-5,6,7,8-tetrahydroacridine-2-carboxamide]",147 nM
11,"CC(C)[C@]1(F)CCc2nc3c(F)cc(C(=O)N[C@H](CCN4CCC5(CC4)COC5)c4ccc(-c5ccnnc5)nc4)cc3cc2C1 (racemic) [Example 50, rac-(7S)-4,7-difluoro-7-isopropyl-N-[rac-(1R)-3-(2-oxa-7-azaspiro[3.5]nonan-7-yl)-1-(6-pyridazin-4-yl-3-pyridyl)propyl]-6,8-dihydro-5H-acridine-2-carboxamide]",240 nM
12,"CC(C)[C@]1(F)CCc2nc3c(F)cc(C(=O)N[C@H](CCN4CC(O)C4)c4ccc(-c5ccnnc5)nc4)cc3cc2C1 (racemic) [Example 63, rac-(7S)-4,7-difluoro-7-isopropyl-N-[rac-(1R)-3-(3-hydroxyazetidin-1-ium-1-yl)-1-(6-pyridazin-4-yl-3-pyridyl)propyl]-6,8-dihydro-5H-acridine-2-carboxamide;2,2,2-trifluoroacetate]",1190 nM
13,"COCCCC1CCN(CC[C@@H](NC(=O)c2cc(F)c3nc4c(cc3c2)C[C@](F)(C(C)C)CC4)c2ccc(-c3ccnnc3)nc2)CC1 (racemic) [Example 51, rac-(7S)-4,7-difluoro-7-isopropyl-N-[rac-(1R)-3-[4-(3-methoxypropyl)-1-piperidyl]-1-(6-pyridazin-4-yl-3-pyridyl)propyl]-6,8-dihydro-5H-acridine-2-carboxamide]",175 nM
14,"CC(C)[C@]1(F)CCc2nc3c(F)cc(C(=O)N[C@H](CCN4CCCCC4CCO)c4ccc(-c5ccnnc5)nc4)cc3cc2C1 (mixture of isomers) [Example 53, rac-(7S)-4,7-difluoro-7-isopropyl-N-[rac-(1R)-3-[2-(2-hydroxyethyl)-1-piperidyl]-1-(6-pyridazin-4-yl-3-pyridyl)propyl]-6,8-dihydro-5H-acridine-2-carboxamide]",98.1 nM
15,"CC(C)[C@]1(F)CCc2nc3c(F)cc(C(=O)N[C@H](CCN4CCC(O)(C(=O)O)CC4)c4ccc(-c5ccnnc5)nc4)cc3cc2C1 [Example 13, 1-[(3R)-3-({[(7S)-4,7-difluoro-7-(1-methylethyl)-5,6,7,8-tetrahydroacridin-2-yl]carbonyl}amino)-3-(6-pyridazin-4-ylpyridin-3-yl)propyl]-4-hydroxypiperidine-4-carboxylic acid]",855 nM
16,"CC(C)[C@]1(F)CCc2nc3c(F)cc(C(=O)N[C@H](CCN(C)C)c4ccc(-c5ccnnc5)nc4)cc3cc2C1 (racemic) [Example 37, dimethyl-[rac-(3R)-3-(6-pyridazin-4-yl-3-pyridyl)-3-[[rac-(7S)-4,7-difluoro-7-isopropyl-6,8-dihydro-5H-acridine-2-carbonyl]amino]propyl]ammonium;2,2,2-trifluoroacetate]",270 nM
17,"CC(C)[C@]1(F)CCc2nc3c(F)cc(C(=O)N[C@H](CCN4CCC5(CC[C@H](O)C5)CC4)c4ccc(-c5ccnnc5)nc4)cc3cc2C1 (racemic) [Example 48, rac-(7S)-4,7-difluoro-7-isopropyl-N-[rac-(1R)-1-(6-pyridazin-4-yl-3-pyridyl)-3-[rac-(3S)-3-hydroxy-8-azaspiro[4.5]decan-8-yl]propyl]-6,8-dihydro-5H-acridine-2-carboxamide]",105 nM
18,"CN1CC(NC(=O)c2cccc([C@@H](CCN3CCC[C@H]3CO)NC(=O)c3ccc4nc5c(cc4c3)C[C@@H](C3(C(F)(F)F)CC3)CC5)c2)C1 [Example 22, (S)-N-((R)-3-((S)-2-(hydroxymethyl)pyrrolidin-1-yl)-1-(3-((1-methylazetidin-3-yl)carbamoyl)phenyl)propyl)-7-(1-(trifluoromethyl)cyclopropyl)-5,6,7,8-tetrahydroacridine-2-carboxamide]",278 nM
19,"CC(C)[C@]1(F)CCc2nc3c(F)cc(C(=O)N[C@H](CCN4CC5CC(C4)C5(O)C(F)(F)F)c4ccc(-c5ccnnc5)nc4)cc3cc2C1 (stereo partly drawn) [Example 14, (7S)-4,7-difluoro-N-[(1R)-3-[6-hydroxy-6-(trifluoromethyl)-3-azabicyclo[3.1.1]hept-3-yl]-1-(6-pyridazin-4-ylpyridin-3-yl)propyl]-7-(1-methylethyl)-5,6,7,8-tetrahydroacridine-2-carboxamide]",2090 nM
